Target: T1, factor D (Homo sapiens, UniProt P00746)
T1 construct: made in house; host or cells: E. coli
Assay: factor D inhibition assay of Biological Example 2
Type: biochemical

T1 sequence (P00746 26-253): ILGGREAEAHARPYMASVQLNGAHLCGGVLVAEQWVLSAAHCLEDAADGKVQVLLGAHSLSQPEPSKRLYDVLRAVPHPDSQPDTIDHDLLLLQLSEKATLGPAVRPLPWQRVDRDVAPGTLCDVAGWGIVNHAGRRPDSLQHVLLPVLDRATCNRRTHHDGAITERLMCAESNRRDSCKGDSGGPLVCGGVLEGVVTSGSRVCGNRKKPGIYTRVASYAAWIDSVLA

In order of falling IC50:
1. N[C@H](CO)c1cccc(-c2ccc3c(c2)C(Oc2ccccc2CC(=O)O)CC3)c1 (mixture of isomers) [Example 172, (±)-2-(2-((6-(3-((S)-1-Amino-2-hydroxyethyl)phenyl)-2,3-dihydro-1H-inden-1-yl)oxy)phenyl)acetic acid]  5880 nM
2. CNC(CO)c1cccc(-c2cccc(COc3ccccc3CC(=O)O)c2)c1 (racemic) [Example 171, (±)-2-(2-((3′-(2-Hydroxy-1-(methylamino)ethyl)-[1,1′-biphenyl]-3-yl)methoxy)phenyl)acetic acid]  2540 nM
3. NC(CO)c1cccc(-c2cccc(C(=O)Nc3ccccc3CC(=O)O)c2)c1 (racemic) [Example 86, (±)-2-(2-(3′-(1-Amino-2-hydroxyethyl)-[1,1′-biphenyl]-3-ylcarboxamido)phenyl)acetic acid]  1260 nM
4. NC(CCO)c1cccc(-c2cccc(C(=O)Nc3ccccc3CC(=O)O)c2)c1 (racemic) [Example 87, (±)-2-(2-(3′-(1-amino-3-hydroxypropyl)-[1,1′-biphenyl]-3-ylcarboxamido)phenyl)acetic acid]  814 nM
5. CC(C(=O)O)c1ccccc1NC(=O)c1cccc(-c2cc(F)cc(CN)c2)c1 (racemic) [Example 19-B, (±)-2-(2-(3′-(Aminomethyl)-5′-fluoro-[1,1′-biphenyl]-3-ylcarboxamido)phenyl)propanoic acid]  666 nM
6. COC(C)c1cc(COc2ccccc2CC(=O)O)cc(-c2cccc([C@H](N)CF)c2)c1 (mixture of isomers) [Example 121-C, 2-(2-((3′-((S)-1-Amino-2-fluoroethyl)-5-(1-methoxyethyl)-[1,1′-biphenyl]-3-yl)methoxy)phenyl)acetic acid]  380 nM
7. CC(C#N)Oc1cc(C(=O)Nc2ccccc2CC(=O)O)cc(-c2cccc(CN)c2)c1 (racemic) [Example 64, (±)-2-(2-(3′-(Aminomethyl)-5-(1-cyanoethoxy)-[1,1′-biphenyl]-3-ylcarboxamido)phenyl)acetic acid]  63 nM
8. CC(Oc1ccccc1CC(=O)O)c1cccc(-c2cccc(CN)c2)c1 (racemic) [Example 163, (±)-2-(2-(1-(3′-(aminomethyl)-[1,1′-biphenyl]-3-yl)ethoxy)phenyl)acetic acid]  61 nM
9. CC(Oc1ccccc1CC(=O)O)c1cccc(-c2cccc(CN)c2F)c1 (racemic) [Example 183, (±)-2-(2-(1-(3′-(Aminomethyl)-2′-fluoro-[1,1′-biphenyl]-3-yl)ethoxy)phenyl)acetic acid]  29 nM
10. NCc1cccc(-c2cc(OCC3CCCO3)cc(C(=O)Nc3ccccc3CC(=O)O)c2)c1 (racemic) [Example 63, (±)-2-(2-(3′-(Aminomethyl)-5-((tetrahydrofuran-2-yl)methoxy)-[1,1′-biphenyl]-3-ylcarboxamido)phenyl)acetic acid]  16 nM
11. N[C@H](CO)c1cccc(-c2cc(COc3ccccc3CC(=O)O)cc(C(O)C3CCCCC3)c2)c1 (mixture of isomers) [116-I a), 2-(2-((3′-((S)-1-amino-2-hydroxyethyl)-5-(cyclohexyl(hydroxy)methyl)-[1,1′-biphenyl]-3-yl)methoxy)phenyl)acetic acid]  13 nM
12. COC(C)c1cc(COc2ccccc2CC(=O)O)cc(-c2cccc([C@@H](C)N)c2)c1 (mixture of isomers) [Example 119-B, 2-(2-((3′-((R)-1-Aminoethyl)-5-(1-methoxyethyl)-[1,1′-biphenyl]-3-yl)methoxy)phenyl)acetic acid (mixture of diastereomers)]  13 nM
13. CC(O)c1cc(COc2ccccc2CC(=O)O)cc(-c2cccc([C@H](N)CO)c2)c1 (mixture of isomers) [116-E a), 2-(2-((3′-((S)-1-amino-2-hydroxyethyl)-5-(1-hydroxyethyl)-[1,1′-biphenyl]-3-yl)methoxy)phenyl)acetic acid]  9 nM
14. N[C@H](CO)c1cccc(-c2ccc3c(c2)C(Oc2ccccc2CC(=O)O)CCC3)c1 (mixture of isomers) [Example 181, 2-(2-((7-(3-((S)-1-Amino-2-hydroxyethyl)phenyl)-1,2,3,4-tetrahydronaphthalen-1-yl)oxy)phenyl)acetic acid (mixture of diastereomers)]  8 nM
15. NC(CF)c1cccc(-c2cc(COc3ccccc3CC(=O)O)cc(NC[C@@H]3CCCO3)c2)c1F (mixture of isomers) [Example 204-B, 2-(2-((3′-(1-amino-2-fluoroethyl)-2′-fluoro-5-((((S)-tetrahydrofuran-2-yl)methyl)amino)-[1,1′-biphenyl]-3-yl)methoxy)phenyl)acetic acid (mixture of diastereomers)]  7 nM
16. N[C@H](CO)c1cccc(-c2cc(COc3ccccc3CC(=O)O)cc(C(O)C(F)(F)F)c2)c1 (mixture of isomers) [116-G a), 2-(2-((3′-((S)-1-amino-2-hydroxyethyl)-5-(2,2,2-trifluoro-1-hydroxyethyl)-[1,1′-biphenyl]-3-yl)methoxy)phenyl)acetic acid]  6 nM
17. N[C@H](CO)c1cccc(-c2cc(COc3ccccc3CC(=O)O)cc(NCC3CCCO3)c2F)c1 (mixture of isomers) [Example 157, 2-(2-((3′-((S)-1-Amino-2-hydroxyethyl)-6-fluoro-5-(((tetrahydrofuran-2-yl)methyl)amino)-[1,1′-biphenyl]-3-yl)methoxy)phenyl)acetic acid]  5 nM
18. CC(O)c1cc(COc2ccccc2CC(=O)O)cc(-c2cccc(CN)c2)c1 (racemic) [Example 106, (±)-2-(2-((3′-(Aminomethyl)-5-(1-hydroxyethyl)-[1,1′-biphenyl]-3-yl)methoxy)phenyl)acetic acid]  5 nM
19. C[C@@H](N)c1cccc(-c2cc(COc3ccccc3CC(=O)O)c(F)c(NCC3CCCO3)c2)c1F (mixture of isomers) [Example 221 b), 2-(2-((3′-((R)-1-aminoethyl)-2′,4-difluoro-5-(((tetrahydrofuran-2-yl)methyl)amino)-[1,1′-biphenyl]-3-yl)methoxy)phenyl)acetic acid]  4 nM
20. NCc1cccc(-c2cc(COc3ccccc3CC(=O)O)c(F)c(NCC3CCCO3)c2)c1 (racemic) [154-C b), (±)-2-(2-((3′-(aminomethyl)-4-fluoro-5-(((tetrahydrofuran-2-yl)methyl)amino)-[1,1′-biphenyl]-3-yl)methoxy)phenyl)acetic acid]  4 nM
21. NCc1cccc(-c2cc(COc3ccccc3CC(=O)O)cc(NCC3CCCO3)c2F)c1 (racemic) [Example 156-B, (±)-2-(2-((3′-(Aminomethyl)-6-fluoro-5-(((tetrahydrofuran-2-yl)methyl)amino)-[1,1′-biphenyl]-3-yl)methoxy)phenyl)acetic acid]  2 nM
22. NCc1cccc(-c2ccc3c(c2)C(Oc2ccccc2CC(=O)O)CC3)c1 (racemic) [Example 162, (±)-2-(2-((6-(3-(Aminomethyl)phenyl)-2,3-dihydro-1H-inden-1-yl)oxy)phenyl)acetic acid]  2 nM
23. C[C@@H](N)c1cccc(-c2cc(COc3ccccc3CC(=O)O)cc(C(O)C(F)(F)F)c2)c1 (mixture of isomers) [116-H a), 2-(2-((3′-((R)-1-aminoethyl)-5-(2,2,2-trifluoro-1-hydroxyethyl)-[1,1′-biphenyl]-3-yl)methoxy)phenyl)acetic acid]  1 nM

Reference: patent US20160145247A1, “Aminomethyl-Biaryl Derivatives Complement Factor D inhibitors and uses thereof” (NOVARTIS AG, priority 2013, published 2016)
